This test relates to primary rat osteoblasts. Briefly: Proliferation of primary rat osteoblasts (cell counts and [3H]-thymidine incorporation). In kind it is cell-based. To be noted: for Mitogenic / proliferative effect on primary osteoblasts (in words): significantly different from control by ANOVA, post hoc Dunnett's test. How it is done:
Osteoblasts were isolated by collagenase digestion from 20-day fetal rat ? viously described by Lowe, et al. (1991). Calvariae were dissected aseptically, and the frontal and parietal bones were stripped of their periosteum. Only the central portions of the bones, free from suture tissue, were collected. The calvariae were treated twice with phosphate buffered saline (PBS) containing 3 mM EDTA (pH 7.4) for 15 minutes at 37° C. in a shaking water bath. After washing once in PBS, the calvariae were treated twice with 3 ml of 1 mg/ml collagenase for 7 minutes at 37° C. After discarding the supernatants from digestions I and II, the calvariae were treated further two times with 3 ml of 2 mg/ml collagenase (30 mins, 37° C.). The supernatants of digestions III and IV were pooled, centrifuged, and the cells washed in Dulbecco's modified Eagle's medium (DME) with 10% fetal calf serum (FCS), suspended in DME/10% FCS, and placed in […] flasks. The cells were incubated under 5% CO2 and 95% air at 37° C. Confluence was reached by 5-6 days, at which time the cells were subcultured. After trypsinization using trypsin-EDTA (0.05%/0.53 mM), the cells were rinsed in minimum essential medium (MEM) with 5% FCS and resuspended in a fresh medium, then seeded at 5×10^4 cells/ml in 24-well plates (0.5 ml cell suspension per well, i.e., 1.4×10^4 cells/cm^2).
Proliferation studies (cell counts and thymidine incorporation) were performed both in actively growing and non-actively growing cell populations. To produce actively growing cells, sub-confluent populations (24 h after subculturing) were placed in fresh MEM containing 1% FCS and a lactoferrin fragment sample (see Table 1 below). To produce non-actively growing cells, sub-confluent populations were placed in serum-free medium with 0.1% bovine serum albumin plus a lactoferrin fragment sample. Cell numbers were analyzed at 6, 24, and 48 hours after the addition of lactoferrin fragment samples. The cell numbers were determined after detaching cells from the wells by exposure to trypsin/EDTA (0.05%/0.53 mM) for approximately 5 minutes at 37° C. Counting was performed in a haemocytometer chamber. [3H]-thymidine incorporation into actively growing and non-actively growing cells was assessed by pulsing the cells with [3H]-thymidine (1 μCi/well) two hours before the end of the incubation. The experiment was terminated at 6, 24, or 48 hours by washing the cells in MEM containing cold thymidine followed by the addition of 10% trichloroacetic acid. The precipitate was washed twice with ethanol:ether (3:1), and the wells desiccated at room temperature. The ? redissolved in 2 M KOH at 55° C. for 30 min, neutralized with 1 M HCl, and an aliquot counted for radioactivity. For both cell counts and thymidine incorporation, each experiment at each time point was performed at least 4 different times using experimental groups consisting of at least 6 wells.
The osteogenic response seen above was compared with that of insulin-like growth factor 1 (IGF-1), a well-recognized osteoblast mitogen. The magnitudes of response of the lactoferrin fragments were similar to IGF-1 in the same osteoblast cell culture system.
(Uptake of a labelled nucleoside into DNA is a usual measure of proliferation.)

The mark [1] stands for this setting: primary rat osteoblasts, Table 1.

Take “WKLLSKAQEKFGKNKS (listed as Bos taurus) [SEQ ID NO. 33]”: where the note is “figure legends”, the “Mitogenic / proliferative effect on primary osteoblasts (in words)” value (“Mitogenic / proliferative effect” below) is reported as “mitogenic to primary osteoblasts”. In addition, under setting [1], the “Dose (ug/mL): minimum dose range that stimulates osteoblast proliferation” value (“Dose (ug/mL)” below) stood at 100 µg/mL. Further, the “Dose (M): minimum dose range that stimulates osteoblast proliferation” value (primary rat osteoblasts, Table 1, printed as orders of magnitude, e.g. 10^−7/8) is reported as 10^−5 M.

As for RRWQWRMKKLG [SEQ ID NO. 16], under setting [1], the “Dose (ug/mL)” value lay in the range of 0.1 to 10 µg/mL.

As to FKCRRWQWRMKKLGA [SEQ ID NO. 17], the “Mitogenic / proliferative effect” value (figure legends) is “mitogenic to primary osteoblasts”. The “Dose (ug/mL)” value under setting [1] fell in the range of 0.1 to 10 µg/mL.

As to “FKCRRWQWRMKKLGAPSITCVRRAFA [SEQ ID NO. 14]”, the “Concentration at which osteoblast proliferation is significantly different from control” value (figure legends, post hoc Dunnett's test P<0.05 or P<0.01) is 0.01 µg/mL. Further, for the setting “figure legends”, the “Mitogenic / proliferative effect” value is “mitogenic to primary osteoblasts”. Moreover, the “Dose (ug/mL)” value under setting [1] was in the range of 0.01 to 1.0 µg/mL.

Values taken from patent US20090270309A1, “USE OF LACTOFERRIN FRAGMENTS AND HYDROLYSATES” (priority 2005, published 2009).
